Experimental data as given in patent US9012470B2 (Dart NeuroScience (Cayman) Ltd., priority 2010, dated 2015).
Where a name gives a salt, the structure may show the parent alone.

Test system: benzodiazepine site of GABAA
Experiment: Binding assay, benzodiazepine site of GABAA (binding assay 1: rat brain, (3H)-flunitrazepam; binding assay 2: bovine hippocampal membranes, [3H]-RY80)
Settings: radioligand binding; for % Inhibition at 0.1 μM: 0.1 μM test compound; for % Inhibition at 10 μM: 10 μM test compound
Method: The ability of a compound disclosed herein to act as ligand to the benzodiazepine site of GABAA can be determined using pharmacological models which are well known in the art using the following assay.
Binding assay 1: Whole brain (except cerebellum) of male Wistar derived rats weighing 175±25 g were used to prepare GABAA central benzodiazepine receptor in Na—K phosphate buffer pH 7.4. A 5 mg aliquot was incubated with 1 nM (^3H)-flunitrazepam for 60 minutes at 25° C. Experiments were performed in the presence or absence of 30 μM of GABA. Non-specific binding was estimated in the presence of 10 μM of diazepam. Membranes were filtered and washed, the filters were then counted to determine (^3H)-flunitrazepam specifically bound. Test compounds were tested in duplicate according to the required concentrations (Damm, H. W., et al. (1978) Res. Comm. Chem. Pathol. Pharmacol. 22: 597-560 incorporated herein in its entirety; Speth, R. C., et al. (1979) Life Sci. 24: 351-357 incorporated herein in its entirety).
Receptor Source: Bovine hippocampal membranes
Radioligand: [3H]-RY80 (40-80 Ci/mmol)
Final ligand concentration—[0.8 nM]
Non-specific Determinant: L-655,708—[0.5 μM]
Binding assay 2 followed procedures based on Li and Szabo (Li M., Szabo A., Rosenberg H. Evaluation of native GABAA receptors containing an α5 subunit. Eur. J. Pharmacol. 413: 63-72 (2001)). Incubation Conditions: Reactions are carried out in 50 mM Tris-Citrate (pH 7.8) containing 200 mM NaCl at 0-4° C. for 60 minutes. The reaction is terminated by rapid vacuum filtration onto glass fiber filters. Radioactivity trapped onto the filters is determined and compared to control values in order to ascertain any interactions of test compound with the benzodiazepine (central) binding site.

| SMILES | % Inhibition at 0.1 μM | % Inhibition at 10 μM |
| --- | --- | --- |
| CCCCNC(=O)n1ncc2c3nn(-c4cccc(Cl)c4)c(=O)c-3c[nH]c21 [Compound 6ac, N-butyl-2-(3-chlorophenyl)-3-oxo-2,3-dihydrodipyrazolo[3,4-b:3′,4′-d]pyridine-6(5H)-carboxamide] |  | A (A indicates % inhibition >80%) |
| CC(C)NC(=O)n1ncc2c3nn(-c4ccc(Cl)cn4)c(=O)c-3c[nH]c21 [Compound 6aw, 2-(5-chloropyridin-2-yl)-N-isopropyl-3-oxo-2,3-dihydrodipyrazolo[3,4-b:3′,4′-d]pyridine-6(5H)-carboxamide] |  | B (B indicates % inhibition <80% and >20%) |
| CCCCNC(=O)n1ncc2c3nn(-c4ccc(C(F)(F)F)cc4)c(=O)c-3c[nH]c21 [Compound 6ah, N-butyl-3-oxo-2-(4-(trifluoromethyl)phenyl)-2,3-dihydrodipyrazolo[3,4-b:3′,4′-d]pyridine-6(5H)-carboxamide] |  | B (B indicates % inhibition <80% and >20%) |
| CN(C)C(=O)n1ncc2c3nn(-c4ccccc4)c(=O)c-3c[nH]c21 [Compound 7c, N,N-dimethyl-3-oxo-2-phenyl-2,3-dihydrodipyrazolo[3,4-b:3′,4′-d]pyridine-6(5H)-carboxamide. TFA] |  | B (B indicates % inhibition <80% and >20%) |
| O=C(Nc1ccccc1)n1cc2[nH]cc3c(=O)n(-c4ccccc4)nc-3c2c1 [Compound 13k, 3-Oxo-N,2-diphenyl-2,3-dihydropyrazolo[3,4-d]pyrrolo[3,4-b]pyridine-7(5H)-carboxamide] | B (B indicates % inhibition <80% and >20%) | A (A indicates % inhibition >80%) |
| CCNC(=O)n1ncc2c3nn(-c4ccc(Cl)c(C(F)(F)F)c4)c(=O)c-3c[nH]c21 [Compound 6s, 2-(4-chloro-3-(trifluoromethyl)phenyl)-N-ethyl-3-oxo-2,3-dihydrodipyrazolo[3,4-b:3′,4′-d]pyridine-6(5H)-carboxamide] |  | B (B indicates % inhibition <80% and >20%) |
| CC(C)NC(=O)n1ncc2c3nn(-c4ccc(C(C)C)cc4)c(=O)c-3c[nH]c21 [Compound 6aa, N-isopropyl-2-(4-isopropylphenyl)-3-oxo-2,3-dihydrodipyrazolo[3,4-b:3′,4′-d]pyridine-6(5H)-carboxamide] |  | B (B indicates % inhibition <80% and >20%) |
| CCNC(=S)n1ncc2c3nn(-c4ccc(C(C)C)cc4)c(=O)c-3c[nH]c21 [Compound 6au, N-ethyl-2-(4-isopropylphenyl)-3-oxo-2,3-dihydrodipyrazolo[3,4-b:3′,4′-d]pyridine-6(5H)-carbothioamide] | B (B indicates % inhibition <80% and >20%) | A (A indicates % inhibition >80%) |
| CCCCNC(=O)n1ncc2c3nn(-c4ccc(Cl)cc4F)c(=O)c-3c[nH]c21 [Compound 6ak, N-butyl-2-(4-chloro-2-fluorophenyl)-3-oxo-2,3-dihydrodipyrazolo[3,4-b:3′,4′-d]pyridine-6(5H)-carboxamide] | C (C indicates % inhibition <20%) | A (A indicates % inhibition >80%) |
| CCCCNC(=O)n1ncc2c3nn(-c4cccc(C(F)(F)F)c4)c(=O)c-3c[nH]c21 [Compound 6aj, N-butyl-3-oxo-2-(3-(trifluoromethyl)phenyl)-2,3-dihydrodipyrazolo[3,4-b:3′,4′-d]pyridine-6(5H)-carboxamide] | C (C indicates % inhibition <20%) | B (B indicates % inhibition <80% and >20%) |
| CCCCNC(=O)n1ncc2c3nn(-c4ccccc4F)c(=O)c-3c[nH]c21 [Compound 6al, N-butyl-2-(2-fluorophenyl)-3-oxo-2,3-dihydrodipyrazolo[3,4-b:3′,4′-d]pyridine-6(5H)-carboxamide] | C (C indicates % inhibition <20%) | A (A indicates % inhibition >80%) |
| CC(C)NC(=O)n1cc2[nH]cc3c(=O)n(-c4ccccc4)nc-3c2c1 [Compound 13j, N-Isopropyl-3-oxo-2-phenyl-2,3-dihydropyrazolo[3,4-d]pyrrolo[3,4-b]pyridine-7(5H)-carboxamide] | B (B indicates % inhibition <80% and >20%) | A (A indicates % inhibition >80%) |
| CC(C)NC(=O)n1ncc2c3nn(-c4ccccc4)c(=O)c-3c[nH]c21 [Compound 6a, N-isopropyl-3-oxo-2-phenyl-2,3-dihydrodipyrazolo[3,4-b:3′,4′-d]pyridine-6(5H)-carboxamide] | C (C indicates % inhibition <20%) | B (B indicates % inhibition <80% and >20%) |
| CC(C)NC(=O)n1ncc2c3nn(-c4ccc(C(F)(F)F)cc4)c(=O)c-3c[nH]c21 [Compound 6af, N-isopropyl-3-oxo-2-(4-(trifluoromethyl)phenyl)-2,3-dihydrodipyrazolo[3,4-b:3′,4′-d]pyridine-6(5H)-carboxamide] |  | B (B indicates % inhibition <80% and >20%) |
| CC(C)CNC(=O)n1ncc2c3nn(-c4ccc(F)cc4F)c(=O)c-3c[nH]c21 [Compound 6aq, 2-(2,4-difluorophenyl)-N-isobutyl-3-oxo-2,3-dihydrodipyrazolo[3,4-b:3′,4′-d]pyridine-6(5H)-carboxamide] | C (C indicates % inhibition <20%) | B (B indicates % inhibition <80% and >20%) |
| CCNC(=O)n1ccc2c3nn(-c4ccc(Cl)cn4)c(=O)c-3c[nH]c21 [Compound 17f, 2-(5-Chloropyridin-2-yl)-N-ethyl-3-oxo-2,3-dihydropyrazolo[3,4-d]pyrrolo[2,3-b]pyridine-6(5H)-carboxamide] |  | B (B indicates % inhibition <80% and >20%) |
| CC(C)NC(=O)n1ncc2c3nn(-c4ccsc4)c(=O)c-3c[nH]c21 [Compound 6v, N-isopropyl-3-oxo-2-(thiophen-3-yl)-2,3-dihydrodipyrazolo[3,4-b:3′,4′-d]pyridine-6(5H)-carboxamide] |  | B (B indicates % inhibition <80% and >20%) |

The remaining lines, values ahead:

| % Inhibition at 0.1 μM | % Inhibition at 10 μM | SMILES |
| --- | --- | --- |
| C (C indicates % inhibition <20%) | A (A indicates % inhibition >80%) | CC(C)CCNC(=O)n1ncc2c3nn(-c4ccc(F)cc4F)c(=O)c-3c[nH]c21 [Compound 6ap, 2-(2,4-difluorophenyl)-N-isopentyl-3-oxo-2,3-dihydrodipyrazolo[3,4-b:3′,4′-d]pyridine-6(5H)-carboxamide] |
|  | C (C indicates % inhibition <20%) | CCNC(=O)n1ncc2c3nn(-c4cc(C(F)(F)F)cc(C(F)(F)F)c4)c(=O)c-3c[nH]c21 [Compound 6q, 2-(3,5-bis(trifluoromethyl)phenyl)-N-ethyl-3-oxo-2,3-dihydrodipyrazolo[3,4-b:3′,4′-d]pyridine-6(5H)-carboxamide] |
| A (A indicates % inhibition >80%) | A (A indicates % inhibition >80%) | CCNC(=S)n1ncc2c3nn(-c4ccc(Br)cc4)c(=O)c-3c[nH]c21 [Compound 6at, 2-(4-bromophenyl)-N-ethyl-3-oxo-2,3-dihydrodipyrazolo[3,4-b:3′,4′-d]pyridine-6(5H)-carbothioamide] |
| C (C indicates % inhibition <20%) | C (C indicates % inhibition <20%) | CNC(=O)n1ccc2c3nn(-c4ccccc4)c(=O)c-3c[nH]c21 [Compound 17a, N-Methyl-3-oxo-2-phenyl-2,3-dihydropyrazolo[3,4-d]pyrrolo[2,3-b]pyridine-6(5H)-carboxamide] |
| C (C indicates % inhibition <20%) | A (A indicates % inhibition >80%) | CC(C)CNC(=O)n1ncc2c3nn(-c4ccccc4)c(=O)c-3c[nH]c21 [Compound 6e, N-isobutyl-3-oxo-2-phenyl-2,3-dihydrodipyrazolo[3,4-b:3′,4′-d]pyridine-6(5H)-carboxamide] |
|  | C (C indicates % inhibition <20%) | CC(C)NC(=O)n1ncc2c3nn(-c4ccc(Cl)c(C(F)(F)F)c4)c(=O)c-3c[nH]c21 [Compound 6t, 2-(4-chloro-3-(trifluoromethyl)phenyl)-N-isopropyl-3-oxo-2,3-dihydrodipyrazolo[3,4-b:3′,4′-d]pyridine-6(5H)-carboxamide] |
| A (A indicates % inhibition >80%) | A (A indicates % inhibition >80%) | CCNC(=O)n1cc2[nH]cc3c(=O)n(-c4ccc(Cl)cn4)nc-3c2c1 [Compound 13h, 2-(5-chloropyridin-2-yl)-N-ethyl-3-oxo-2,3-dihydropyrazolo[3,4-d]pyrrolo[3,4-b]pyridine-7(5H)-carboxamide] |
|  | A (A indicates % inhibition >80%) | CNC(=O)n1ncc2c3nn(-c4ccc(Cl)cn4)c(=O)c-3c[nH]c21 [Compound 6ax, 2-(5-chloropyridin-2-yl)-N-methyl-3-oxo-2,3-dihydrodipyrazolo[3,4-b:3′,4′-d]pyridine-6(5H)-carboxamide] |
|  | A (A indicates % inhibition >80%) | CC(C)NC(=O)n1ncc2c3nn(-c4ccc(Br)cc4)c(=O)c-3c[nH]c21 [Compound 6x, 2-(4-bromophenyl)-N-isopropyl-3-oxo-2,3-dihydrodipyrazolo[3,4-b:3′,4′-d]pyridine-6(5H)-carboxamide] |
